Measured values from patent publication US10717734B2, “Indole and azaindole haloallylamine derivative inhibitors of lysyl oxidases and uses thereof” (PHARMAXIS LTD., priority 2016, dated 2020).
Counter-ions that a name gives are not always drawn.

Key:
[1] = system: primary fibroblasts from confirmed cases of IPF (fibroblastic foci); test: Collagen cross-link formation in in vitro fibroblastic foci model of IPF; type: cell-based, human; details: TGF-β1 stimulated foci, six weeks culture with inhibitor
From the text: Reduction of Collagen Cross-Link Formation in an in vitro Fibroblastic Foci Model of IPF
The lung tissue of patients with idiopathic pulmonary fibrosis (IPF) is characterised by dense collections of myofibroblasts and extracellular matrix (ECM) termed ‘fibroblastic foci’. Using a novel in vitro model of fibroblastic foci (Jones et al., AJRCCM 191; 2015:A4912) the formation of lysyl oxidase (LOX) mediated collagen cross-links and the effects of the nonselective LOX inhibitor β-aminopropionitrile (BAPN) as well lysyl oxidase like-2 (LOXL2)-selective inhibitors were investigated.
Cultures of primary fibroblasts were grown out from clinical diagnostic biopsies of fibrotic lung and stored in liquid nitrogen. […]
To quantify collagen cross-links (Robins Biochem Soc Trans 2007; 35(5): 849-852; Saito et al Anal. Biochem. 1997; 253: 26-32; Sims, Avery & Bailey Methods in Molecular Biology 2000; vol 139: 11-26), cultures were treated with potassium borohydride to stabilise the reducible immature cross-links, and hydrolysed in 6N HCl at 100° C. for 16 hr. Total collagen content was assessed by hydroxyproline assay. Immature cross-links were assessed by LC/MS/MS and mature pyridinoline cross-links by ELISA. Cross-link data is expressed as moles of cross-link per mole collagen. […]

[2] = system: CCl4 induced liver fibrosis; test: CCl4 induced liver fibrosis model; type: in vivo, rat; details: 0.1-100 mg/Kg
Procedure: Inhibition of CCl4 Induced Liver Fibrosis
An analysis of the use of LOXL2 inhibitors to treat inflammatory/fibrotic diseases is performed through the use of a CCl4 induced liver fibrosis model. Liver injury is frequently followed by complete parenchymal regeneration due to regenerative potency of hepatocytes. Continuous liver injury due to the administration of CCl4 leads to extracellular matrix accumulation, accompanied by recurrent hepatocyte necrosis, inflammation, and regenerative processes, causing liver fibrosis and consequently liver cirrhosis (see Natsume, M, et al., Attenuated liver fibrosis and depressed serum albumin levels in carbon tetrachloride-treated IL-6-deficient mice. J. Leukoc. Biol., 1999, 66, 601-608 also See Yao, Q, Y, et al. Inhibition by curcumin of multiple sites of the transforming growth factor-beta1 signalling pathway ameliorates the progression of liver fibrosis induced by carbon tetrachloride in rats. BMC Complement Altern Med. 2012 Sep. 16; 12(1):156.)
Rats are administered orally with CCl4 at a concentration of 0.25 μL/g in olive oil, 3 times per week for 6 weeks. Compound 22 is given 0.1-100 mg/Kg throughout the period of the experimental procedure or only 3 weeks after CCl4 administration and then throughout the entire study. […]

Bovine LOX = Bovine LOX (Bos taurus (Bovine), UniProt P33072); test: LOX inhibition, peroxidase-coupled Amplex Red amine oxidase assay; type: biochemical; details: 30 min preincubation at 37° C., putrescine substrate
Procedure, shortened: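 Bovine LOX in 1.2 M urea, 50 mM sodium borate pH 8.2 […]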

Recombinant human MAO-B = Recombinant human MAO-B (Homo sapiens (Human), UniProt P27338); test: Human recombinant MAO-B inhibition; type: biochemical; details: benzylamine 100 μM
Procedure, shortened: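 Recombinant human MAO-B (0.06 mg/mL) was the enzyme source, with benzylamine substrate at 100 μM. Otherwise run as for the human SSAO/VAP-1 assay.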

Human LOXL2 = Human LOXL2 (Homo sapiens (Human), UniProt Q9Y4K0); test: LOXL2 inhibition, peroxidase-coupled Amplex Red amine oxidase assay; type: biochemical; details: 30 min preincubation at 37° C., putrescine substrate
Procedure, shortened: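 Enzyme preincubated 30 min at 37 °C with compound (11-point curve) in 1.2 M urea, 50 mM borate pH 8.2 plus 1 μM mofegiline and 0.5 mM pargyline; putrescine at twice KM (10 mM for LOXL2), Amplex Red and HRP added. Fluorescence (565/590 nm) read every 2.5 min for 30 min; IC50 from kinetic slopes.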

[3] = target: Human recombinant SSAO/VAP-1 (Homo sapiens (Human), UniProt Q16853); test: Human recombinant SSAO/VAP-1 amine oxidase inhibition; type: biochemical; details: 30 min preincubation at 37° C., 600 μM benzylamine
Procedure, shortened: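 Purified SSAO/VAP-1 (residues 34-763, expressed in CHO Lec 8 cells; 0.25 μg/mL) preincubated 30 min at 37° C with compound in 0.1 M sodium phosphate pH 7.4. Reaction mix of 600 μM benzylamine, 120 μM Amplex Red and 1.5 U/mL HRP added; fluorescence (ex 565/em 590 nm) read every 2.5 min for 30 min; IC50 from kinetic slopes over 4-11 point curves.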

Sequence of Recombinant human MAO-B (P27338 whole entry): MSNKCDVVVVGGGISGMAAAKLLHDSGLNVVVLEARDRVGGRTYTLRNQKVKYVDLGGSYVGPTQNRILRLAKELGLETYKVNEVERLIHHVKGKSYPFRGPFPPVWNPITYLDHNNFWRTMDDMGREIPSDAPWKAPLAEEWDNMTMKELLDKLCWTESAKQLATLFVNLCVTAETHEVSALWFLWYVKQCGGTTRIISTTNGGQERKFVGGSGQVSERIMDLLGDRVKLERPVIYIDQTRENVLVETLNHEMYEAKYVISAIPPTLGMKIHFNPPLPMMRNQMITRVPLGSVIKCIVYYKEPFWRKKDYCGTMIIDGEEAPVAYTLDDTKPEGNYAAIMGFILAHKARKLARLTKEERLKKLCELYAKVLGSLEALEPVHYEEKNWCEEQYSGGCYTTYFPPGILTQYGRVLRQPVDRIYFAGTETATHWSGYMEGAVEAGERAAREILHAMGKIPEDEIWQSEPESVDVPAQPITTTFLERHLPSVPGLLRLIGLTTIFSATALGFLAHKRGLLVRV
Sequence of Human recombinant SSAO/VAP-1 (Q16853 34-763): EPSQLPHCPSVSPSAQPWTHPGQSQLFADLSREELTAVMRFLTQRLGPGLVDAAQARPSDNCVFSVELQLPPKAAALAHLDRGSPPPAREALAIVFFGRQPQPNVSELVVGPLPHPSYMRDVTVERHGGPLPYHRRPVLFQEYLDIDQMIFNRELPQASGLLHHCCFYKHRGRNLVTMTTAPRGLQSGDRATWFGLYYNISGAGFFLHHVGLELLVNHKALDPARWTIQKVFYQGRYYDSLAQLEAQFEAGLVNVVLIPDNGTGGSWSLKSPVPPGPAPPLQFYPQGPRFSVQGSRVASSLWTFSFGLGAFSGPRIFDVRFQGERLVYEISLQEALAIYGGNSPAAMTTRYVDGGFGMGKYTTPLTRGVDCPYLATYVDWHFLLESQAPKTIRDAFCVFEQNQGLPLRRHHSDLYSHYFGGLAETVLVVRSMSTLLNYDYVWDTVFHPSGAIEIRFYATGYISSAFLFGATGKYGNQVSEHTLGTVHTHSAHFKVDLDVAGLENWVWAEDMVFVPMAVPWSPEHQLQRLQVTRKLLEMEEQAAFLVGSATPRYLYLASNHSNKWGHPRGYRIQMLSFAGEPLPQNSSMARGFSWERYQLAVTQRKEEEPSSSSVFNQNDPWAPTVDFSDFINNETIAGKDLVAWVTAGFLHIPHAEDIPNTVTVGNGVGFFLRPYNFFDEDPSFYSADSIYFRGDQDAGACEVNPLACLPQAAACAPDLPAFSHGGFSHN
Sequence of Bovine LOX (P33072 170-418): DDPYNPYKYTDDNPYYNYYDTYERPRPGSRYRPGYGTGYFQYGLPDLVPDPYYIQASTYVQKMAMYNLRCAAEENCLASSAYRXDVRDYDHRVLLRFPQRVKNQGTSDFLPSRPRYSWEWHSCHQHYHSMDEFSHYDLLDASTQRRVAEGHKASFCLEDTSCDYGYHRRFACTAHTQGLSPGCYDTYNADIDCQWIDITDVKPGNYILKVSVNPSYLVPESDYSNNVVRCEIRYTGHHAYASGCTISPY
Sequence of Human LOXL2 (Q9Y4K0 26-774): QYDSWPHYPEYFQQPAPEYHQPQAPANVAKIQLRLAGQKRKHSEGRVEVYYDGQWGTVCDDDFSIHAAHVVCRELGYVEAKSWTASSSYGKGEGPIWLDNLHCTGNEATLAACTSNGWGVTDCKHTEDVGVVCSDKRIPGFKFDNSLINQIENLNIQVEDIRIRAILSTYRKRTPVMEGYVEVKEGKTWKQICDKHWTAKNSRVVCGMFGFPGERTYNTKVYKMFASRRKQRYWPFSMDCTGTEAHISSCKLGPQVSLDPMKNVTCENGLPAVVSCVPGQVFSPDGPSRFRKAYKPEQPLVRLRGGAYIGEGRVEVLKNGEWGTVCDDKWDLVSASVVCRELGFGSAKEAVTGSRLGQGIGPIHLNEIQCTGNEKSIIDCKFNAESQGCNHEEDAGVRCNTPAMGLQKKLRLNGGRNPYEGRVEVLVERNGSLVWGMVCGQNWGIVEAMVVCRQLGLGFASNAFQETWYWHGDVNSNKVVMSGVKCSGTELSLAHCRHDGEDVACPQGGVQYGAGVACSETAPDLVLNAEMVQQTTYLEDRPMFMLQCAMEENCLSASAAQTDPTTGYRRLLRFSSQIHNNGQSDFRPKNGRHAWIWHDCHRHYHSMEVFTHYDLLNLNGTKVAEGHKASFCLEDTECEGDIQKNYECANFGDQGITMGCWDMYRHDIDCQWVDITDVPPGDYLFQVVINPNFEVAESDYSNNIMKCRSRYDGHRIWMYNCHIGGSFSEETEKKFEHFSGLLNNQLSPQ

SMILES	collagen cross-link formation [1]	inhibition of liver collagen by hydroxyproline analysis ([2]; CCl4 model, statistically significant) [%]	reduction of liver fibrosis by sirius red staining with quantification ([2]; rats, oral CCl4 3 times per week for 6 weeks, versus vehicle-treated group)	IC50 (Bovine LOX) [µM]	IC50 (Recombinant human MAO-B) [µM]	IC50 (Human LOXL2) [µM]	IC50 [3] [µM]
N#CCCN [BAPN, β-aminopropionitrile]	reduced cross-link formation in a concentration dependent manner	–	–	–	–	–	–
CC(C)c1c(Cc2ccc(S(C)(=O)=O)nc2)c2ncccc2n1C/C(F)=C/CN [Compound 22, trihydrochloride]	–	> 30	up to 50%	> 0.3	> 3	< 0.3	> 3
Cc1c(Cc2ccc(S(C)(=O)=O)c(Cl)c2)c2ncccc2n1C/C(F)=C/CN [Compound 35, (Z)-4-(3-(3-chloro-4-(methylsulfonyl)benzyl)-2-methyl-1H-pyrrolo[3,2-b]pyridin-1-yl)-3-fluorobut-2-en-1-amine dihydrochloride]	–	–	–	> 0.3	> 3	< 0.3	> 3
Cc1cc2c(cn1)c(Cc1ccc(S(C)(=O)=O)cc1)c(C)n2C/C(F)=C/CN [Compound 36, (Z)-4-(2,6-dimethyl-3-(4-(methylsulfonyl)benzyl)-1H-pyrrolo[3,2-c]pyridin-1-yl)-3-fluorobut-2-en-1-amine dihydrochloride]	–	–	–	> 0.3	> 3	< 0.3	> 3
Cc1cc2c(nn1)c(Cc1ccc(S(=O)(=O)N(C)C)cc1)c(C)n2C/C(F)=C/CN [Compound 37, (Z)-4-((5-(4-amino-2-fluorobut-2-en-1-yl)-3,6-dimethyl-5H-pyrrolo[3,2-c]pyridazin-7-yl)methyl)-N,N-dimethylbenzenesulfonamide dihydrochloride]	–	–	–	> 0.3	> 3	< 0.3	> 3
Cc1ncc2c(n1)c(Cc1ccc(S(C)(=O)=O)cc1)c(C)n2C/C(F)=C/CN [Compound 38, (Z)-4-(2,6-dimethyl-7-(4-(methylsulfonyl)benzyl)-5H-pyrrolo[3,2-d]pyrimidin-5-yl)-3-fluorobut-2-en-1-amine dihydrochloride]	–	–	–	> 0.3	> 3	< 0.3	> 3
Cc1ncc2c(n1)c(Cc1ccc(S(=O)(=O)N(C)C)cc1)c(C)n2C/C(F)=C/CN [Compound 39, (Z)-4-((5-(4-amino-2-fluorobut-2-en-1-yl)-2,6-dimethyl-5H-pyrrolo[3,2-d]pyrimidin-7-yl)methyl)-N,N-dimethylbenzenesulfonamide dihydrochloride]	–	–	–	> 0.3	> 3	< 0.3	> 3
Cc1ccc2c(n1)c(CCc1ccc(S(C)(=O)=O)cc1)c(C)n2C/C(F)=C/CN [Compound 40, (Z)-4-(2,5-dimethyl-3-(4-(methylsulfonyl)phenethyl)-1H-pyrrolo[3,2-b]pyridin-1-yl)-3-fluorobut-2-en-1-amine dihydrochloride]	–	–	–	> 0.3	> 3	< 0.3	> 3
CC(C)c1c(Cc2ccc(S(=O)(=O)C(C)C)nc2)c2ncccc2n1C/C(F)=C/CN [Compound 41, (Z)-3-fluoro-4-(2-isopropyl-3-((6-(isopropylsulfonyl)pyridin-3-yl)methyl)-1H-pyrrolo[3,2-b]pyridin-1-yl)but-2-en-1-amine hydrochloride]	–	–	–	> 0.3	> 3	< 0.3	> 3
CC(C)c1c(C(O)c2ccc(S(C)(=O)=O)nc2)c2ncccc2n1C/C(F)=C/CN (stereo not drawn) [Compound 42, (Z)-(1-(4-amino-2-fluorobut-2-en-1-yl)-2-isopropyl-1H-pyrrolo[3,2-b]pyridin-3-yl)(6-(methylsulfonyl)pyridin-3-yl)methanol dihydrochloride]	–	–	–	> 0.3	> 3	< 0.3	> 3
